# Results: ChEMBL document CHEMBL3885881, “DrugMatrix”
# Species: Rattus norvegicus
# Assay: DrugMatrix - Regimen: Daily Repeat
# Format: toxicity, organism-based, Sprague-Dawley
# Design: regimen Daily Repeat, gender Male, age 6-8 weeks
# Details: in vivo; for ABSOLUTE BASOPHIL / ABSOLUTE EOSINOPHIL / ABSOLUTE LYMPHOCYTE / ABSOLUTE MONOCYTE / ABSOLUTE SEGMENTED NEUTROPHIL / BASOPHIL / EOSINOPHIL / ERYTHROCYTE COUNT / HEMATOCRIT / HEMOGLOBIN / LEUKOCYTE COUNT / LYMPHOCYTE / MEAN CORPUSCULAR HEMOGLOBIN / MEAN CORPUSCULAR HEMOGLOBIN CONCENTRATION / MEAN CORPUSCULAR VOLUME / MONOCYTE / NEUTROPHIL / NUCLEATED RED BLOOD CELLS / PLATELET COUNT: tissue Blood; for ALANINE AMINOTRANSFERASE / ALKALINE PHOSPHATASE / ASPARTATE AMINOTRANSFERASE / BLOOD UREA NITROGEN / CARBON DIOXIDE / CHLORIDE / CHOLESTEROL / CREATINE PHOSPHOKINASE / CREATININE / GLUCOSE / LACTATE DEHYDROGENASE / LIPASE / PHOSPHORUS / POTASSIUM / SODIUM / TOTAL BILIRUBIN / TOTAL PROTEIN / URIC ACID / ALBUMIN: tissue Plasma
# [1] = iv, 0.06 mg/kg, 72 h, dose level Low, time 3 day, vehicle 100 % SALINE
# [2] = iv, 0.6 mg/kg, 72 h, dose level High, time 3 day, vehicle 100 % SALINE
# [3] = po, 25 mg/kg, 72 h, route oral GAVAGE, dose level Low, time 3 day, […]
# [4] = po, 25 mg/kg, 120 h, route oral GAVAGE, dose level Low, time 5 day, […]
structure (smiles),measurement,setting,value
COc1cc2c(c(OC)c1OC)-c1ccc(OC)c(=O)cc1[C@@H](NC(C)=O)CC2 [COLCHICINE],ABSOLUTE BASOPHIL,[1],0 CELLS/uL
same,ABSOLUTE EOSINOPHIL,[1],27.33 CELLS/uL
same,ABSOLUTE LYMPHOCYTE,[1],6156.67 CELLS/uL
same,ABSOLUTE MONOCYTE,[1],0 CELLS/uL
same,ABSOLUTE SEGMENTED NEUTROPHIL,[1],749.33 CELLS/uL
same,BASOPHIL,[1],0%
same,EOSINOPHIL,[1],0.33%
same,ERYTHROCYTE COUNT,[1],5.17 x10E6/uL
same,HEMATOCRIT,[1],32.07%
same,HEMOGLOBIN,[1],12.27 G/DL
same,LEUKOCYTE COUNT,[1],6.93 x10E3/uL
same,LYMPHOCYTE,[1],89%
same,MEAN CORPUSCULAR HEMOGLOBIN,[1],23.77 pg
same,MEAN CORPUSCULAR HEMOGLOBIN CONCENTRATION,[1],38.27 G/DL
same,MEAN CORPUSCULAR VOLUME,[1],62.1 fL
same,MONOCYTE,[1],0%
same,NEUTROPHIL,[1],10.67%
same,NUCLEATED RED BLOOD CELLS,[1],0 /100WBC
same,PLATELET COUNT,[1],1043 x10E3/uL
same,ALANINE AMINOTRANSFERASE,[1],47.67 u/L
same,ALKALINE PHOSPHATASE,[1],415.67 u/L
same,ASPARTATE AMINOTRANSFERASE,[1],76.33 u/L
same,BLOOD UREA NITROGEN,[1],14 mg/dL
same,CARBON DIOXIDE,[1],31.67 mmol/L
same,CHLORIDE,[1],96.33 MEQ/L
same,CHOLESTEROL,[1],74 mg/dL
same,CREATINE PHOSPHOKINASE,[1],201 u/L
same,CREATININE,[1],0.18 mg/dL
same,GLUCOSE,[1],136.67 mg/dL
same,LACTATE DEHYDROGENASE,[1],97 u/L
same,LIPASE,[1],8 u/L
same,PHOSPHORUS,[1],13.4 mg/dL
same,POTASSIUM,[1],6.43 MEQ/L
same,SODIUM,[1],144.43 MEQ/L
same,TOTAL BILIRUBIN,[1],0.17 mg/dL
same,TOTAL PROTEIN,[1],6.37 G/DL
same,URIC ACID,[1],1.13 mg/dL
same,ABSOLUTE BASOPHIL,[2],0 CELLS/uL
same,ABSOLUTE EOSINOPHIL,[2],18.33 CELLS/uL
same,ABSOLUTE LYMPHOCYTE,[2],4412.33 CELLS/uL
same,ABSOLUTE MONOCYTE,[2],18.33 CELLS/uL
same,ABSOLUTE SEGMENTED NEUTROPHIL,[2],317.67 CELLS/uL
same,BASOPHIL,[2],0%
same,EOSINOPHIL,[2],0.33%
same,ERYTHROCYTE COUNT,[2],4.91 x10E6/uL
same,HEMATOCRIT,[2],30.9%
same,HEMOGLOBIN,[2],11.7 G/DL
same,LEUKOCYTE COUNT,[2],4.77 x10E3/uL
same,LYMPHOCYTE,[2],93%
same,MEAN CORPUSCULAR HEMOGLOBIN,[2],23.87 pg
same,MEAN CORPUSCULAR HEMOGLOBIN CONCENTRATION,[2],37.87 G/DL
same,MEAN CORPUSCULAR VOLUME,[2],62.97 fL
same,MONOCYTE,[2],0.33%
same,NEUTROPHIL,[2],6.33%
same,NUCLEATED RED BLOOD CELLS,[2],0.33 /100WBC
same,PLATELET COUNT,[2],987.33 x10E3/uL
same,ALANINE AMINOTRANSFERASE,[2],103.67 u/L
same,ALKALINE PHOSPHATASE,[2],371.33 u/L
same,ASPARTATE AMINOTRANSFERASE,[2],526.67 u/L
same,BLOOD UREA NITROGEN,[2],14.33 mg/dL
same,CARBON DIOXIDE,[2],28.67 mmol/L
same,CHLORIDE,[2],97 MEQ/L
same,CHOLESTEROL,[2],115.67 mg/dL
same,CREATINE PHOSPHOKINASE,[2],183.67 u/L
same,CREATININE,[2],0.17 mg/dL
same,GLUCOSE,[2],165.67 mg/dL
same,LACTATE DEHYDROGENASE,[2],137.33 u/L
same,LIPASE,[2],9 u/L
same,PHOSPHORUS,[2],11.9 mg/dL
same,POTASSIUM,[2],6.74 MEQ/L
same,SODIUM,[2],144.13 MEQ/L
same,TOTAL BILIRUBIN,[2],0.13 mg/dL
same,TOTAL PROTEIN,[2],6.3 G/DL
same,URIC ACID,[2],1.67 mg/dL
O=c1ccc2ccccc2o1 [COUMARIN],ABSOLUTE BASOPHIL,[3],0 CELLS/uL
same,ABSOLUTE EOSINOPHIL,[3],0 CELLS/uL
same,ABSOLUTE LYMPHOCYTE,[3],13415.67 CELLS/uL
same,ABSOLUTE MONOCYTE,[3],244.67 CELLS/uL
same,ABSOLUTE SEGMENTED NEUTROPHIL,[3],973 CELLS/uL
same,BASOPHIL,[3],0%
same,EOSINOPHIL,[3],0%
same,ERYTHROCYTE COUNT,[3],5.76 x10E6/uL
same,HEMATOCRIT,[3],36.97%
same,HEMOGLOBIN,[3],14.6 G/DL
same,LEUKOCYTE COUNT,[3],14.63 x10E3/uL
same,LYMPHOCYTE,[3],92%
same,MEAN CORPUSCULAR HEMOGLOBIN,[3],25.4 pg
same,MEAN CORPUSCULAR HEMOGLOBIN CONCENTRATION,[3],39.5 G/DL
same,MEAN CORPUSCULAR VOLUME,[3],64.27 fL
same,MONOCYTE,[3],1.67%
same,NEUTROPHIL,[3],6.33%
same,NUCLEATED RED BLOOD CELLS,[3],0 /100WBC
same,PLATELET COUNT,[3],1015 x10E3/uL
same,ALANINE AMINOTRANSFERASE,[3],75 u/L
same,ALBUMIN,[3],4.13 G/DL
same,ALKALINE PHOSPHATASE,[3],469.67 u/L
same,ASPARTATE AMINOTRANSFERASE,[3],106.33 u/L
same,BLOOD UREA NITROGEN,[3],10.67 mg/dL
same,CARBON DIOXIDE,[3],33.67 mmol/L
same,CHLORIDE,[3],101.67 MEQ/L
same,CHOLESTEROL,[3],71.67 mg/dL
same,CREATINE PHOSPHOKINASE,[3],272.67 u/L
same,CREATININE,[3],0.12 mg/dL
same,GLUCOSE,[3],148 mg/dL
same,LACTATE DEHYDROGENASE,[3],117 u/L
same,LIPASE,[3],13.67 u/L
same,PHOSPHORUS,[3],11.83 mg/dL
same,POTASSIUM,[3],6.75 MEQ/L
same,SODIUM,[3],146.1 MEQ/L
same,TOTAL BILIRUBIN,[3],0.13 mg/dL
same,TOTAL PROTEIN,[3],5.1 G/DL
same,URIC ACID,[3],1.27 mg/dL
same,ABSOLUTE BASOPHIL,[4],0 CELLS/uL
same,ABSOLUTE EOSINOPHIL,[4],0 CELLS/uL
same,ABSOLUTE LYMPHOCYTE,[4],11975.33 CELLS/uL
same,ABSOLUTE MONOCYTE,[4],0 CELLS/uL
same,ABSOLUTE SEGMENTED NEUTROPHIL,[4],1091.33 CELLS/uL
same,BASOPHIL,[4],0%
same,EOSINOPHIL,[4],0%
same,ERYTHROCYTE COUNT,[4],5.78 x10E6/uL
same,HEMATOCRIT,[4],36.27%
same,HEMOGLOBIN,[4],14.1 G/DL
same,LEUKOCYTE COUNT,[4],13.07 x10E3/uL
same,LYMPHOCYTE,[4],91.33%
same,MEAN CORPUSCULAR HEMOGLOBIN,[4],24.4 pg
same,MEAN CORPUSCULAR HEMOGLOBIN CONCENTRATION,[4],38.9 G/DL
same,MEAN CORPUSCULAR VOLUME,[4],62.7 fL
same,MONOCYTE,[4],0%
same,NEUTROPHIL,[4],8.67%
same,NUCLEATED RED BLOOD CELLS,[4],0 /100WBC
same,PLATELET COUNT,[4],1251 x10E3/uL
same,ALANINE AMINOTRANSFERASE,[4],69 u/L
same,ALBUMIN,[4],4.17 G/DL
same,ALKALINE PHOSPHATASE,[4],466 u/L
same,ASPARTATE AMINOTRANSFERASE,[4],95.67 u/L
same,BLOOD UREA NITROGEN,[4],13.33 mg/dL
same,CARBON DIOXIDE,[4],27 mmol/L
same,CHLORIDE,[4],102.67 MEQ/L
same,CHOLESTEROL,[4],64.33 mg/dL
same,CREATINE PHOSPHOKINASE,[4],297 u/L
same,CREATININE,[4],0.17 mg/dL
same,GLUCOSE,[4],157.33 mg/dL
same,LACTATE DEHYDROGENASE,[4],402.33 u/L
same,LIPASE,[4],12.33 u/L
same,PHOSPHORUS,[4],12 mg/dL
same,POTASSIUM,[4],6.55 MEQ/L
same,SODIUM,[4],143.47 MEQ/L
same,TOTAL BILIRUBIN,[4],0.23 mg/dL
same,TOTAL PROTEIN,[4],5.73 G/DL
same,URIC ACID,[4],1.8 mg/dL
